Data from patent publication US11021445B2, “Carboxylic acid derivative as AT2R receptor antagonist” (SHANDONG DANHONG PHARMACEUTICAL CO., LTD., priority 2017, dated 2021).

Molecular target: T1, hAT2 (Homo sapiens, UniProt P50052)
T1 construct: expressed in transfected cells; host or cells: HEK-293
T1 sequence (P50052 1-363): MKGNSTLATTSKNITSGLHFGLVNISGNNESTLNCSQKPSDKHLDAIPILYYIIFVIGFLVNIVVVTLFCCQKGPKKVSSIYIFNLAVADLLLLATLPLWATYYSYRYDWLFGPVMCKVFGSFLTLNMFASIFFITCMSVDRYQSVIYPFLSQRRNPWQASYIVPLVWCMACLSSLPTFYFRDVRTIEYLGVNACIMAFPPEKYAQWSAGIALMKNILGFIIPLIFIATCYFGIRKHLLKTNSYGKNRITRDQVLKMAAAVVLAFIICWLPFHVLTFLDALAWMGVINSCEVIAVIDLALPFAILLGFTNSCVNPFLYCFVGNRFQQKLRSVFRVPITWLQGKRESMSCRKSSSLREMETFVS
Experiment: hAT2 receptor binding assay (SPA, [125I]-Sar1-Ile8-Angiotensin II)
Conditions: membrane of HEK-293 cells overexpressing hAT2; 0.1 nM 125I ligand
Protocol: hAT2 Receptor Binding Assay
Protease inhibitor mixture, free of ethylenediaminetetraacetic acid-1 tablets (Roche #11873580001) (50 mL plus one piece)
Experimental Methods and Steps
The reference ligand PD123319 and the test compound were prepared into a 750 μM mother liquor by DMSO; each compound was prepared into a solution of 8 concentration gradients (up to a concentration of 750 μM, 3-fold dilution) and 10 μl of the solution was added to a master of a 384-well plate per well.
The SPA beads were prepared to a mother liquor of 25 mg/ml by the buffer;
The isotope [^125I]-Sar1-Ile8-Angiotensin II was prepared into a mother liquor of 50 μCi/ml by adding pure water.
The cell membrane overexpressing hAT2 in HEK-293 cells was prepared to 2.5 mg/ml by the buffer.
200 nl of compound was aspirated from the mother plate with ECHO to each well of the 384-well test plate. ZPE was added to an equal volume of DMSO. (The concentration of the test compound in the reaction was diluted by 250 times).
A 50 ml membrane solution containing 10 μg/μl of magnetic beads and 0.05 μg/μl of AT2 was prepared, placed on a shaker and uniformly mixed. (100 rpm, 30 min). The test plate finally contained an hAT2 membrane with 1.25 μg/well and magnetic beads with 250 μg/well.
A 3.2 ml membrane liquid mixture was added to the compound test plate by using a Multidrop Combi pipette, and 25 μl was added to each well.
A 0.2 nM solution was prepared with 50 μCi/ml of isotope [^125I]-Sar1-Ile8-Angiotensin II mother liquor by the buffer, and 0.2 nM of ^125I was added to the compound test plate with a Multidrop Combi pipette. A volume of 25 μl was added to each well. The final concentration of ^125I isotope is 0.1 nM.
The prepared test plate was placed on a shaker overnight at room temperature at 200 rpm.
The test plate was centrifuged with a centrifuge at 1200 rpm for 1 min.
The centrifuged test plate was read with Microbeta.

Row | SMILES | IC50
1 | CC1(O[C@H](C(=O)N2Cc3ccc(Cl)c(OCc4ccccc4)c3C[C@H]2C(=O)O)c2ccccc2)CCCC1 [Compound 75] | 3.9 nM
2 | COc1ccc2c(c1OCc1ccccc1)CC(C(=O)O)N(C(=O)C(OC1CCOCC1)c1ccccc1)C2 (single isomer, unassigned) [Compound 1] | 66.4 nM
3 | COc1ccc(O[C@@H](C(=O)N2Cc3ccc(OC)c(OCc4ccccc4)c3C[C@H]2C(=O)O)c2ccccc2)cc1 [Compound 24] | 192 nM
4 | CCCCO[C@@H](C(=O)N1Cc2ccc(OC)c(OCc3ccccc3)c2C[C@H]1C(=O)O)c1ccccc1 [Compound 6] | 383 nM
5 | COc1ccc2c(c1OCc1ccccc1)C[C@@H](C(=O)O)N(C(=O)[C@H](Oc1ccccc1F)c1ccccc1)C2 [Compound 18] | 54.1 nM
6 | COc1ccc2c(c1OCc1ccccc1)C[C@@H](C(=O)O)N(C(=O)[C@@H](OCC(F)(F)F)c1ccccc1)C2 [Compound 7] | 35.2 nM
7 | COCCO[C@@H](C(=O)N1Cc2ccc(OC)c(OCc3ccccc3)c2C[C@H]1C(=O)O)c1ccccc1 [Compound 4] | 836 nM
8 | O=C(O)[C@@H]1Cc2c(ccc(Cl)c2OCc2ccccc2)CN1C(=O)[C@@H](O[C@H]1CC[C@@H](O)CC1)c1ccccc1 [Compound 77] | 881 nM
9 | CC1(O[C@@H](C(=O)N2Cc3ccc(Cl)c(OCc4ccccc4)c3C[C@H]2C(=O)O)c2ccccc2)CCCC1 [Compound 76] | 72.7 nM
10 | O=C(O)[C@H]1Cc2c(ccc(Cl)c2OCc2ccccc2)CN1C(=O)[C@@H](OC1CCCC1)c1ccccc1 [Compound 108] | 234 nM
11 | O=C(O)[C@@H]1Cc2c(ccc(Cl)c2OCc2ccccc2)CN1C(=O)[C@@H](OC1CC(F)(F)C1)c1ccccc1 [Compound 73] | 3.7 nM
12 | COc1ccc2c(c1OCc1ccccc1)C[C@@H](C(=O)O)N(C(=O)[C@@H](OC1CCC3CC31)c1ccccc1)C2 (single isomer, unassigned) [Compound 59] | 22.7 nM
13 | COc1ccc2c(c1OCc1ccccc1)C[C@@H](C(=O)O)N(C(=O)[C@@H](OC1COC1)c1ccccc1)C2 [Compound 13] | 154 nM
14 | COc1ccc2c(c1OCc1ccccc1)C[C@@H](C(=O)O)N(C(=O)[C@@H](OC1CCCC1)c1ccc(F)cc1)C2 [Compound 53] | 84.1 nM
15 | CC1(O[C@H](C(=O)N2Cc3cccc(OCc4ccccc4)c3C[C@H]2C(=O)O)c2ccccc2)CCCC1 [Compound 79] | 5.8 nM
16 | COc1ccc2c(c1OCc1ccccc1)C[C@@H](C(=O)O)N(C(=O)[C@H](Oc1cccs1)c1ccccc1)C2 [Compound 26] | 95.1 nM

Row | SMILES | IC50
17 | O=C(O)[C@@H]1Cc2c(cccc2OCc2ccccc2)CN1C(=O)[C@@H](O[C@H]1C[C@@H](O)C1)c1ccccc1 [Compound 85] | 83.5 nM
18 | COc1ccc2c(c1OCc1ccccc1)C[C@@H](C(=O)O)N(C(=O)[C@@H](OC(C)(C)C)c1ccccc1)C2 [Compound 39] | 18.5 nM
19 | O=C(O)[C@@H]1Cc2c(ccc(Cl)c2OCc2ccccc2)CN1C(=O)[C@H](O[C@H]1CC[C@@H](O)CC1)c1ccccc1 [Compound 78] | 7.4 nM
20 | N#Cc1ccc2c(c1OCc1ccccc1)C[C@H](C(=O)O)N(C(=O)[C@H](OC1CCCC1)c1ccccc1)C2 [Compound 112] | 116 nM
21 | O=C(O)[C@@H]1Cc2c(cccc2OCc2ccccc2)CN1C(=O)[C@H](O[C@H]1C[C@@H](O)C1)c1ccccc1 [Compound 86] | 879 nM
22 | COc1ccc2c(c1OCc1ccccc1)C[C@@H](C(=O)O)N(C(=O)[C@H](Oc1ccc(C#N)cc1)c1ccccc1)C2 [Compound 30] | 373 nM
23 | COc1ccc2c(c1OCc1ccccc1)C[C@@H](C(=O)O)N(C(=O)[C@@H](O[C@H]1CCOC1)c1ccccc1)C2 (single isomer, unassigned) [Compound 11] | > 3000 nM
24 | COc1ccc2c(c1OCc1ccccc1)C[C@@H](C(=O)O)N(C(=O)[C@H](O[C@H]1CC[C@H](O)CC1)c1ccccc1)C2 [Compound 66] | > 3000 nM
25 | COc1ccc(O[C@H](C(=O)N2Cc3ccc(OC)c(OCc4ccccc4)c3C[C@H]2C(=O)O)c2ccccc2)cc1 [Compound 23] | > 3000 nM
26 | COc1ccc2c(c1OCc1ccccc1)C[C@@H](C(=O)O)N(C(=O)[C@@H](NC1CCCC1)c1ccccc1)C2 [Compound 40] | 9.1 nM
27 | COc1ccc2c(c1OCc1ccccc1)C[C@@H](C(=O)O)N(C(=O)[C@H](Oc1ccccn1)c1ccccc1)C2 [Compound 22] | 1340 nM
28 | COc1ccc2c(c1OCc1ccccc1)C[C@@H](C(=O)O)N(C(=O)[C@H](OCC(F)(F)F)c1ccccc1)C2 [Compound 8] | 513 nM
29 | O=C(O)[C@@H]1Cc2c(cccc2OCc2ccccc2)CN1C(=O)[C@H](OC1CC(F)(F)C1)c1ccccc1 [Compound 84] | 481 nM
30 | COc1ccc2c(c1OCc1ccccc1)C[C@@H](C(=O)O)N(C(=O)C(OC1CCCC1)c1ccccc1)C2 (stereo partly drawn) [Compound 47] | 17 nM
31 | N#Cc1ccc2c(c1OCc1ccccc1)C[C@@H](C(=O)O)N(C(=O)[C@@H](OC1CCCC1)c1ccccc1)C2 [Compound 109] | 1050 nM

Now from value to compound:

Row | IC50 | SMILES
32 | 47.6 nM | COc1ccc2c(c1OCc1ccccc1)C[C@@H](C(=O)O)N(C(=O)[C@@H](O[C@@H]1CCOC1)c1ccccc1)C2 (single isomer, unassigned) [Compound 9]
33 | 8 nM | COc1ccc2c(c1OCc1ccccc1)C[C@@H](C(=O)O)N(C(=O)[C@@H](OC1CCCCC1)c1ccccc1)C2 [Compound 44]
34 | 161 nM | COc1ccc2c(c1OCc1ccccc1)C[C@@H](C(=O)O)N(C(=O)[C@@H](NC(=O)C1CCCC1)c1ccccc1)C2 [Compound 42]
35 | > 3000 nM | COc1ccc2c(c1OCc1ccccc1)C[C@@H](C(=O)O)N(C(=O)[C@H](NC(=O)C1CCCC1)c1ccccc1)C2 [Compound 43]
36 | > 3000 nM | COc1ccc2c(c1OCc1ccccc1)C[C@@H](C(=O)O)N(C(=O)[C@H](OC1COC1)c1ccccc1)C2 [Compound 14]
37 | 97.1 nM | COc1ccc2c(c1OCc1ccccc1)C[C@@H](C(=O)O)N(C(=O)[C@H](Oc1ccc3ccccc3c1)c1ccccc1)C2 [Compound 36]
38 | > 3000 nM | COc1ccc2c(c1OCc1ccccc1)C[C@@H](C(=O)O)N(C(=O)[C@H](OC1CCOC1)c1ccccc1)C2 (single isomer, unassigned) [Compound 12]
39 | 250 nM | COc1ccc2c(c1OCc1ccccc1)C[C@@H](C(=O)O)N(C(=O)[C@@H](Oc1ccccc1)c1ccccc1)C2 [Compound 19]
40 | 1090 nM | Cc1ccc2c(c1OCc1ccccc1)C[C@@H](C(=O)O)N(C(=O)[C@@H](O[C@H]1CC[C@@H](O)CC1)c1ccccc1)C2 [Compound 71]
41 | 3.2 nM | O=C(O)[C@@H]1Cc2c(cccc2OCc2ccccc2)CN1C(=O)[C@@H](OC1CC(F)(F)C1)c1ccccc1 [Compound 83]
42 | 231 nM | COc1ccc2c(c1OCc1ccccc1)C[C@@H](C(=O)O)N(C(=O)[C@@H](Oc1ccc(C#N)cc1)c1ccccc1)C2 [Compound 29]
43 | 412 nM | COc1ccc2c(c1OCc1ccccc1)C[C@](C)(C(=O)O)N(C(=O)[C@H](OC1CCCC1)c1ccccc1)C2 [Compound 114]
44 | 157 nM | COc1ccc2c(c1OCc1ccccc1)C[C@@H](C(=O)O)N(C(=O)[C@@H](O[C@H]1CC[C@H](O)CC1)c1ccccc1)C2 [Compound 65]
45 | 21.4 nM | COc1ccc2c(c1OCc1ccccc1)C[C@@H](C(=O)O)N(C(=O)C(OC1CCC(O)CC1)c1ccccc1)C2 (stereo partly drawn) [Compound 48]
46 | 270 nM | COc1ccc2c(c1OCc1ccccc1)C[C@@H](C(=O)O)N(C(=O)[C@H](OC1CCC3CC31)c1ccccc1)C2 (single isomer, unassigned) [Compound 62]
47 | 186 nM | COc1ccc2c(c1OCc1ccccc1)C[C@@H](C(=O)O)N(C(=O)C(Oc1ccccc1)c1ccccc1)C2 (stereo partly drawn) [Compound 46]
48 | 126 nM | COc1ccc2c(c1OCc1ccccc1)C[C@@H](C(=O)O)N(C(=O)[C@H](OC1CC(F)(F)C1)c1ccccc1)C2 [Compound 52]
49 | 16.5 nM | COc1ccc2c(c1OCc1ccccc1)C[C@@H](C(=O)O)N(C(=O)[C@H](Oc1c(F)cc(F)cc1F)c1ccccc1)C2 [Compound 16]
50 | 224 nM | COc1ccc2c(c1OCc1ccccc1)C[C@@H](C(=O)O)N(C(=O)[C@H](OC1CC3CC3C1)c1ccccc1)C2 (stereo partly drawn) [Compound 56]
51 | 195 nM | COc1ccc2c(c1OCc1ccccc1)C[C@@H](C(=O)O)N(C(=O)[C@@H](Oc1ccccn1)c1ccccc1)C2 [Compound 21]
